Reference: PubChem BioAssay (NCI)
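These data come from cells grown in 96-well plates and exposed to compound for 48 hours at five concentrations. At the TGI there is no net growth.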

Tests used:
Assay in all cases: growth of human tumour cells (NCI), 48 h
NCI-H23 lung = system: NCI-H23 lung
SF-539 CNS = system: SF-539 CNS
LOX IMVI melanoma = system: LOX IMVI melanoma
HS 578T breast = system: HS 578T breast
HL-60(TB) leukemia = system: HL-60(TB) leukemia
OVCAR-8 ovarian = system: OVCAR-8 ovarian
K-562 leukemia = system: K-562 leukemia
ACHN renal = system: ACHN renal
M14 melanoma = system: M14 melanoma
SN12C renal = system: SN12C renal
NCI/ADR-RES ovarian = system: NCI/ADR-RES ovarian
MDA-N = system: MDA-N
OVCAR-3 ovarian = system: OVCAR-3 ovarian
SR leukemia = system: SR leukemia
UACC-62 melanoma = system: UACC-62 melanoma
COLO 205 colon = system: COLO 205 colon
UACC-257 melanoma = system: UACC-257 melanoma
OVCAR-5 ovarian = system: OVCAR-5 ovarian
PC-3 prostate = system: PC-3 prostate
SNB-19 CNS = system: SNB-19 CNS
SK-MEL-28 melanoma = system: SK-MEL-28 melanoma
SK-OV-3 ovarian = system: SK-OV-3 ovarian
786-0 renal = system: 786-0 renal
SW-620 colon = system: SW-620 colon
KM12 colon = system: KM12 colon
MDA-MB-231 breast = system: MDA-MB-231 breast
EKVX NSCLC = system: EKVX NSCLC
U251 CNS = system: U251 CNS
SF-268 CNS = system: SF-268 CNS
RXF 393 renal = system: RXF 393 renal
MOLT-4 leukemia = system: MOLT-4 leukemia
HOP-62 NSCLC = system: HOP-62 NSCLC
MCF7 breast = system: MCF7 breast
HCT-15 colon = system: HCT-15 colon
CAKI-1 renal = system: CAKI-1 renal
HOP-92 NSCLC = system: HOP-92 NSCLC
A498 renal = system: A498 renal
DU-145 prostate = system: DU-145 prostate
HT29 colon = system: HT29 colon
SNB-75 CNS = system: SNB-75 CNS
SF-295 CNS = system: SF-295 CNS
SK-MEL-2 melanoma = system: SK-MEL-2 melanoma
BT-549 breast = system: BT-549 breast
RPMI-8226 leukemia = system: RPMI-8226 leukemia
T-47D breast = system: T-47D breast
SK-MEL-5 melanoma = system: SK-MEL-5 melanoma
HCC-2998 colon = system: HCC-2998 colon
MDA-MB-435 = system: MDA-MB-435
HCT-116 colon = system: HCT-116 colon
NCI-H226 lung = system: NCI-H226 lung
UO-31 renal = system: UO-31 renal
NCI-H460 lung = system: NCI-H460 lung
A549 NSCLC = system: A549 NSCLC
OVCAR-4 ovarian = system: OVCAR-4 ovarian
TK-10 renal = system: TK-10 renal
NCI-H522 lung = system: NCI-H522 lung
IGROV1 ovarian = system: IGROV1 ovarian
MALME-3M melanoma = system: MALME-3M melanoma
CCRF-CEM leukemia = system: CCRF-CEM leukemia

SMILES: Nc1ncnc2c1nc(-c1ccccc1)n2C1OC(CO)C(O)C1O (stereo unspecified)
- TGI (NCI-H23 lung): > 100 µM
- TGI (SF-539 CNS): > 100 µM
- TGI (LOX IMVI melanoma): > 100 µM
- TGI (HS 578T breast): > 100 µM
- TGI (HL-60(TB) leukemia): > 100 µM
- TGI (OVCAR-8 ovarian): > 100 µM
- TGI (K-562 leukemia): > 100 µM
- TGI (ACHN renal): > 100 µM
- TGI (M14 melanoma): > 100 µM
- TGI (SN12C renal): > 100 µM
- TGI (NCI/ADR-RES ovarian): > 100 µM
- TGI (MDA-N): > 100 µM
- TGI (OVCAR-3 ovarian): > 100 µM
- TGI (SR leukemia): > 100 µM
- TGI (UACC-62 melanoma): > 100 µM
- TGI (COLO 205 colon): > 100 µM
- TGI (UACC-257 melanoma): > 100 µM
- TGI (OVCAR-5 ovarian): > 100 µM
- TGI (PC-3 prostate): > 100 µM
- TGI (SNB-19 CNS): > 100 µM
- TGI (SK-MEL-28 melanoma): > 100 µM
- TGI (SK-OV-3 ovarian): > 100 µM
- TGI (786-0 renal): > 100 µM
- TGI (SW-620 colon): > 100 µM
- TGI (KM12 colon): > 100 µM
- TGI (MDA-MB-231 breast): > 100 µM
- TGI (EKVX NSCLC): > 100 µM
- TGI (U251 CNS): > 100 µM
- TGI (SF-268 CNS): > 100 µM
- TGI (RXF 393 renal): > 100 µM
- TGI (MOLT-4 leukemia): > 100 µM
- TGI (HOP-62 NSCLC): > 100 µM
- TGI (MCF7 breast): > 100 µM
- TGI (HCT-15 colon): > 100 µM
- TGI (CAKI-1 renal): > 100 µM
- TGI (HOP-92 NSCLC): > 100 µM
- TGI (A498 renal): > 100 µM
- TGI (DU-145 prostate): > 100 µM
- TGI (HT29 colon): > 100 µM
- TGI (SNB-75 CNS): > 100 µM
- TGI (SF-295 CNS): > 100 µM
- TGI (SK-MEL-2 melanoma): > 100 µM
- TGI (BT-549 breast): > 100 µM
- TGI (RPMI-8226 leukemia): > 100 µM
- TGI (T-47D breast): > 100 µM
- TGI (SK-MEL-5 melanoma): > 100 µM
- TGI (HCC-2998 colon): > 100 µM
- TGI (MDA-MB-435): > 100 µM
- TGI (HCT-116 colon): > 100 µM
- TGI (NCI-H226 lung): > 100 µM
- TGI (UO-31 renal): > 100 µM
- TGI (NCI-H460 lung): > 100 µM
- TGI (A549 NSCLC): > 100 µM
- TGI (OVCAR-4 ovarian): > 100 µM
- TGI (TK-10 renal): > 100 µM
- TGI (NCI-H522 lung): > 100 µM
- TGI (IGROV1 ovarian): > 100 µM

SMILES: COc1ccc(N=c2ssc(C(=S)Nc3ccc(OC)cc3)c2S)cc1
- TGI (NCI-H23 lung): > 100 µM
- TGI (SF-539 CNS): > 100 µM
- TGI (LOX IMVI melanoma): > 100 µM
- TGI (HS 578T breast): > 100 µM
- TGI (HL-60(TB) leukemia): > 100 µM
- TGI (OVCAR-8 ovarian): > 100 µM
- TGI (K-562 leukemia): > 100 µM
- TGI (ACHN renal): > 100 µM
- TGI (M14 melanoma): > 100 µM
- TGI (SN12C renal): > 100 µM
- TGI (NCI/ADR-RES ovarian): > 100 µM
- TGI (MDA-N): > 100 µM
- TGI (OVCAR-3 ovarian): > 100 µM
- TGI (SR leukemia): > 100 µM
- TGI (UACC-62 melanoma): > 100 µM
- TGI (COLO 205 colon): > 100 µM
- TGI (UACC-257 melanoma): > 100 µM
- TGI (OVCAR-5 ovarian): > 100 µM
- TGI (MALME-3M melanoma): > 100 µM
- TGI (PC-3 prostate): > 100 µM
- TGI (SNB-19 CNS): > 100 µM
- TGI (SK-MEL-28 melanoma): > 100 µM
- TGI (SK-OV-3 ovarian): > 100 µM
- TGI (786-0 renal): > 100 µM
- TGI (SW-620 colon): > 100 µM
- TGI (KM12 colon): > 100 µM
- TGI (MDA-MB-231 breast): > 100 µM
- TGI (EKVX NSCLC): > 100 µM
- TGI (U251 CNS): > 100 µM
- TGI (SF-268 CNS): > 100 µM
- TGI (RXF 393 renal): > 100 µM
- TGI (MOLT-4 leukemia): > 100 µM
- TGI (HOP-62 NSCLC): > 100 µM
- TGI (MCF7 breast): > 100 µM
- TGI (HCT-15 colon): > 100 µM
- TGI (CAKI-1 renal): > 100 µM
- TGI (HOP-92 NSCLC): > 100 µM
- TGI (A498 renal): > 100 µM
- TGI (DU-145 prostate): > 100 µM
- TGI (HT29 colon): > 100 µM
- TGI (CCRF-CEM leukemia): > 100 µM
- TGI (SNB-75 CNS): > 100 µM
- TGI (SF-295 CNS): > 100 µM
- TGI (SK-MEL-2 melanoma): > 100 µM
- TGI (BT-549 breast): > 100 µM
- TGI (RPMI-8226 leukemia): > 100 µM
- TGI (T-47D breast): > 100 µM
- TGI (SK-MEL-5 melanoma): > 100 µM
- TGI (HCC-2998 colon): 84.6 µM
- TGI (MDA-MB-435): > 100 µM
- TGI (HCT-116 colon): > 100 µM
- TGI (NCI-H226 lung): > 100 µM
- TGI (UO-31 renal): > 100 µM
- TGI (NCI-H460 lung): > 100 µM
- TGI (A549 NSCLC): > 100 µM
- TGI (OVCAR-4 ovarian): > 100 µM
- TGI (TK-10 renal): > 100 µM
- TGI (NCI-H522 lung): > 100 µM
- TGI (IGROV1 ovarian): > 100 µM
